The values below come from PMC11284787, “Ligand-Directed Labeling of the Adenosine A1 Receptor in Living Cells” (Journal of Medicinal Chemistry, 2024).

The experiment deals with T1, TS-SNAP-A1AR.
T1 construct: signal peptide of the murine 5HT3A receptor (N); expressed in transfected cells; receptor purified on MagStrep beads after labelling in cells
In words: SDS-PAGE in-gel fluorescence of labeled TS-SNAP-A1AR. In kind it is cell-based. The settings on record: HEK293G TS-SNAP-A1AR cells, 300 nM 11 or 130 nM 12 (then 1 μM Met-Tet-SulfoCy5), 2 h; band at ca. 59.1 kDa. As for the experimental part: Figure 3 Molecular pharmacology and biochemical characterization of 11 and 12. NanoBRET ligand-binding data were measured in HEK293 cells stably expressing the human NL-A1AR (A–C) or rat NL-A1AR (D–F). […] Data were normalized to maximal BRET signals in the absence of unlabeled competing ligands (total binding, TB). (C, F) NanoBRET dissociation kinetics experiments with 11 (SulfoCy5) performed in human and rat NL-A1AR HEK293T cells, respectively. Cells were treated with 250 nM 11 (SulfoCy5, lilac open circles) for 5 h and CA200645 (black open triangles) for 2 h. […] TS-SNAP-A1AR was purified and separated on an SDS-PAGEgel gel, and direct Cy5 fluorescence was visualized using in-gel fluorescence. […]
The small reduction in the BRET signal observed toward the end of the reads could be mostly likely ascribed to substrate (furimazine) consumption. […] To confirm covalent labeling of A1AR by 11 and 12, HEK293G cells stably expressing a Twin-Strep-SNAP-A1AR(TS-SNAP-A1R) construct were treated with 11 or 12 prior to purification, separation by sodium dodecyl sulfate-polyacrylamide gel electrophoresis (SDS-PAGE) and visualization of labeled samples by in-gel fluorescence (Figure 3G). […]
Autocorrelation curves (AC) were constructed from fluorescence fluctuation traces and analysed within Zen Black (2012) software. […]

Consider `CCCCn1c(=O)c2[nH]c(C34CCC(C(=O)NCCNC(=O)CCNC(=O)c5ccc(OC(=O)CCCCC[N+]6=C(/C=C/C=C/C=C7/N(C)c8ccc(S(=O)(=O)O)cc8C7(C)C)C(C)(C)c7cc(S(=O)(=O)[O-])ccc76)c(F)c5)(CC3)CC4)nc2n(CCCC)c1=O` [Compound 11, 1-(6-(4-((3-((2-(4-(1,3-Dibutyl-2,6-dioxo-2,3,6,7-tetrahydro-1H-purin-8-yl)bicyclo[2.2.2]octane-1-carboxamido)ethyl)amino)-3-oxopropyl)carbamoyl)-2-fluorophenoxy)-6-oxohexyl)-3,3-dimethyl-2-((1E,3E)-5-((E)-1,3,3-trimethyl-5-sulfoindolin-2-ylidene)penta-1,3-dien-1-yl)-3H-indol-1-ium-5-sulfonate], for which the “in-gel Cy5 fluorescence band of SulfoCy5-labeled TS-SNAP-A1AR” value is “strong band”.
With `CCCCn1c(=O)c2[nH]c(C34CCC(C(=O)NCCNC(=O)CCNC(=O)c5ccc(OC(=O)CCC(=O)NCCOCCOCCNC(=O)O[C@H]6CC/C=C/CCC6)c(F)c5)(CC3)CC4)nc2n(CCCC)c1=O` [Compound 12, 4-((3-((2-(4-(1,3-Dibutyl-2,6-dioxo-2,3,6,7-tetrahydro-1H-purin-8-yl)bicyclo[2.2.2]octane-1-carboxamido)ethyl)amino)-3-oxopropyl)carbamoyl)-2-fluorophenyl (R,E)-1-(Cyclooct-4-en-1-yloxy)-1,12-dioxo-5,8-dioxa-2,11-diazapentadecan-15-oate], the “in-gel Cy5 fluorescence band of SulfoCy5-labeled TS-SNAP-A1AR” value is reported as “strong band”.
